{"source": "patent US20260041679A1", "about": "“METHOD OF TREATING HYPERTENSION WITH THE ALDOSTERONE SYNTHASE INHIBITOR BAXDROSTAT” (CINCOR PHARMA, INC., priority 2022, published 2026)", "key": {"[1]": {"test": "Pharmacokinetics in subjects with varying degrees of renal function (Example 4)", "assay_type": "in vivo, human", "settings": "for half-life / Tmax / AUC(0-inf) / AUC(0-t) / Cmax / Vd/F: human, plasma, oral, 10 mg; for AUC(0-inf): read-out: AUC0-inf, mean (SD); for AUC(0-t): read-out: AUC0-last, mean (SD); for Cmax: read-out: Cmax, mean (SD); for Vd/F: read-out: Vz/F, mean (SD)", "description": "This phase 1, open-label, single-dose, parallel-group study was designed in accordance with the FDA guidance for the design and analysis of studies that assess the influence of impaired renal function on PK. Subjects were enrolled into three renal function groups defined based on eGFR calculated using the Chronic Kidney Disease Epidemiology Collaboration equation as follows: […]\nControl(normal renal function or mild renal impairment:eGFR≥60 mL/min) • Moderate to severe renal impairment (eGFR 15 to 59 mL/min) • Kidney failure (eGFR<15 mL/min, including subjects on dialysis)\nAll subjects received a single 10 mg dose of baxdrostat in an open-label manner. […] All subjects were required to fast for a minimum of 10 hours prior to baxdrostat administration. They were then dosed at 8:00 AM (±2 hours) with two 5 mg tablets administered with approximately 240 mL of water. Subjects continued fasting for a minimum of 4 hours after dosing. No other medications were permitted within 2 hours prior to dosing and for 2 hours after dosing with baxdrostat. Subjects on dialysis received the study drug on a non-dialysis day. Blood and urine sample collection for PK analysis continued for 7 days and was proceeded by a follow-up phone call 3±1 days after clinic discharge.\nPlasma and urine samples were analyzed to measure concentrations of baxdrostat and its primary metabolite (baxdrostat-M) using a validated LC-MS/MS method. “Baxdrostat-M” as used herein refers a compound having the following structure:\nBlood and urine samples were collected prior to and after dosing for measurement of plasma and urine baxdrostat and baxdrostat-M concentrations to characterize maximum observed plasma concentration (Cmax), time to Cmax (Tmax), AUC0-last, and AUC0-inf for baxdrostat and baxdrostat-M. The t1/2, CL/F, and V/F were calculated for plasma baxdrostat only. Urine PK parameters included the cumulative amount of baxdrostat and baxdrostat-M excreted in urine (Ae), renal clearance (CLR) of baxdrostat and baxdrostat-M, and fraction of dose excreted renally (Fe) for baxdrostat."}, "[2]": {"test": "Study 121: serum electrolytes and eGFR", "assay_type": "in vivo, human", "source_text": "Aldosterone plays a direct role in the pathogenesis of hypertension via increasing renal absorption of sodium and water while promoting excretion of potassium. There is the potential therefore for an aldosterone synthesis inhibitor to cause the electrolyte abnormalities of hyperkalemia or hyponatremia. Moreover, the decrease in SBP expected with aldosterone inhibitors will reduce blood flow through the afferent arterioles in the kidney, leading to an apparent decline in determination of eGFR. These potential perturbations in kidney physiology were closely monitored throughout the study via the measurement of serum electrolytes and eGFR."}, "[3]": {"settings": "control eGFR ≥60 mL/min, single 10 mg"}, "[4]": {"settings": "kidney failure eGFR <15 mL/min, single 10 mg"}, "[5]": {"settings": "moderate to severe renal impairment eGFR 15-59 mL/min, single 10 mg"}}, "note": "Read-outs that look alike come from different tables or passages of the source. Marks after values point to notes of the source that are not given here.", "data": [{"molecule": "CCC(=O)N[C@@H]1CCCc2c(-c3ccc4c(c3)CCC(=O)N4C)cncc21", "note": "[baxdrostat, (R)—N-(4-(1-methyl-2-oxo-1,2,3,4-tetrahydroquinolin-6-yl)-5,6,7,8-tetrahydroisoquinolin-8-yl) propionamide]", "values": [{"measurement": "recovered unchanged in the urine", "setting": "[1]; control and moderate to severe renal impairment groups", "value": "Approximately 12%"}, {"measurement": "CL/F, mean (SD)", "setting": "[1]; [3]", "value": "3.06 (0.9) L/h"}, {"measurement": "Fe (urine), mean (CV %)", "setting": "[1]; [3]", "value": "12.53 (38.1) %"}, {"measurement": "half-life", "setting": "[1]; across renal function groups, read-out: average half-life", "value": "30 to 42", "unit": "h"}, {"measurement": "Tmax", "setting": "[1]; all renal function groups, single 10 mg, read-out: median Tmax", "value": "≤ 1.5", "unit": "h"}, {"measurement": "AUC(0-inf)", "setting": "[1]; [3]", "value": 3530, "unit": "ng·h/mL"}, {"measurement": "AUC(0-t)", "setting": "[1]; [3]", "value": 3380, "unit": "ng·h/mL"}, {"measurement": "Cmax", "setting": "[1]; [3]", "value": 108, "unit": "ng/mL"}, {"measurement": "Tmax", "setting": "[1]; control eGFR ≥60 mL/min, single 10 mg, read-out: Tmax, mean (SD)", "value": 2.1, "unit": "h"}, {"measurement": "Vd/F", "setting": "[1]; [3]", "value": 146, "unit": "L"}, {"measurement": "half-life", "setting": "[1]; control eGFR ≥60 mL/min, single 10 mg, read-out: t1/2, mean (SD) (converted)", "value": 35.6, "unit": "h"}, {"measurement": "AUC(0-inf)", "setting": "[1]; [4]", "value": 2660, "unit": "ng·h/mL"}, {"measurement": "AUC(0-t)", "setting": "[1]; [4]", "value": 2570, "unit": "ng·h/mL"}, {"measurement": "Cmax", "setting": "[1]; [4]", "value": 96, "unit": "ng/mL"}, {"measurement": "Tmax", "setting": "[1]; kidney failure eGFR <15 mL/min, single 10 mg, read-out: Tmax, mean (SD)", "value": 1.63, "unit": "h"}, {"measurement": "Vd/F", "setting": "[1]; [4]", "value": 200, "unit": "L"}, {"measurement": "AUC(0-inf)", "setting": "[1]; [5]", "value": 4340, "unit": "ng·h/mL"}, {"measurement": "AUC(0-t)", "setting": "[1]; [5]", "value": 4010, "unit": "ng·h/mL"}, {"measurement": "Cmax", "setting": "[1]; [5]", "value": 110, "unit": "ng/mL"}, {"measurement": "Tmax", "setting": "[1]; moderate to severe renal impairment eGFR 15-59 mL/min, single 10 mg, read-out: Tmax, mean (SD)", "value": 1.82, "unit": "h"}, {"measurement": "Vd/F", "setting": "[1]; [5]", "value": 142, "unit": "L"}, {"measurement": "half-life", "setting": "[1]; moderate to severe renal impairment eGFR 15-59 mL/min, single 10 mg, read-out: t1/2, mean (SD) (converted)", "value": 42.1, "unit": "h"}, {"measurement": "CL/F, mean (SD)", "setting": "[1]; [4]", "value": "5.07 (2.9) L/h"}, {"measurement": "Fe (urine), mean (CV %)", "setting": "[1]; [4]", "value": "0.91 (60.7)* %"}, {"measurement": "t1/2, mean (SD)", "setting": "[1]; [4]", "value": "29.70 (10.5) h"}, {"measurement": "renal excretion", "setting": "[1]; kidney failure group", "value": "minimal renal excretion"}, {"measurement": "CL/F, mean (SD)", "setting": "[1]; [5]", "value": "2.60 (1.0) L/h"}, {"measurement": "Fe (urine), mean (CV %)", "setting": "[1]; [5]", "value": "11.81 (26.0) %"}, {"measurement": "effect of renal impairment on Cmax, AUC, half-life, apparent plasma clearance, renal clearance", "setting": "[1]; pairwise comparisons versus control", "value": "no meaningful effect"}, {"measurement": "AEs of renal impairment", "setting": "[2]; 0.5 mg", "value": "no cases"}, {"measurement": "change in serum potassium from baseline to end of treatment, mean (standard deviation)", "setting": "[2]; 0.5 mg", "value": "0.19 (0.474) mEq/L"}, {"measurement": "change in serum sodium from baseline to end of treatment, mean (SD)", "setting": "[2]; 0.5 mg", "value": "−1.2 (2.73) mEq/L"}, {"measurement": "patients with mild hyponatremia (serum sodium <130 mEq/L)", "setting": "[2]; 0.5 mg", "value": 1, "unit": "patients"}, {"measurement": "AEs of renal impairment", "setting": "[2]; 1 mg", "value": 3}, {"measurement": "change in serum potassium from baseline to end of treatment, mean (standard deviation)", "setting": "[2]; 1 mg", "value": "0.36 (0.481) mEq/L"}, {"measurement": "change in serum sodium from baseline to end of treatment, mean (SD)", "setting": "[2]; 1 mg", "value": "−1.1 (3.03) mEq/L"}, {"measurement": "patients with mild hyponatremia (serum sodium <130 mEq/L)", "setting": "[2]; 1 mg", "value": 7, "unit": "patients"}, {"measurement": "AEs of renal impairment", "setting": "[2]; 2 mg", "value": 1}, {"measurement": "change in serum potassium from baseline to end of treatment, mean", "setting": "[2]; 2 mg", "value": 0.29, "unit": "mEq/L"}, {"measurement": "change in serum sodium from baseline to end of treatment, mean", "setting": "[2]; 2 mg", "value": "−2.4", "unit": "mEq/L"}, {"measurement": "patients with mild hyponatremia (serum sodium <130 mEq/L)", "setting": "[2]; 2 mg", "value": 1, "unit": "patients"}, {"measurement": "mean eGFR", "setting": "[2]; 0.5, 1, 2 mg QD", "value": "mild dose-dependent decrease in mean eGFR"}, {"measurement": "overall rate of moderate hyperkalemia (potassium>6.0 mEq/L)", "setting": "[2]; 2 highest dose groups", "value": 2.2, "unit": "%"}, {"measurement": "patients with moderate hyperkalemia (potassium>6.0 mEq/L)", "setting": "[2]; 2 highest dose groups", "value": 3, "unit": "patients"}, {"measurement": "moderate hypokalemia (potassium 3.0 to 2.5 mEq/L)", "setting": "[2]; any baxdrostat dose groups", "value": "no cases"}, {"measurement": "relationship between dose and serum calcium, serum phosphorus", "setting": "[2]; in vivo", "value": "no apparent relationship"}]}]}
